From article PMC5844890 (Scientific Reports, 2018)
Read-outs that look alike come from different tables or passages of the source.

Tests used:
[1] = tested on: HeLa cells; experiment: Anti-proliferative activity, HeLa cervical carcinoma cells (Coulter counting); type: cell-based; conditions: Homo sapiens, 72 h, read-out: Tumor cells IC50 HeLa
Source text: (§1) The anti-proliferative activity of the synthesized benzofurane derivatives was studied in three human cancer cell lines [breast carcinoma (MDA-MB-231), lymphoblastic leukemia (CEM) and cervical carcinoma (HeLa) cells] and one endothelial cell line [human microvascular endothelial cells (HMEC-1)].
(§2) The human microvascular endothelial cell line HMEC-1 was obtained at passage 12 from the Centers for Disease Control and Prevention (Atlanta, GA, USA) and used from passage 17 till 27. Human breast carcinoma (MDA-MB-231), human cervical carcinoma (HeLa) and human T-lymphoid (CEM) cells were obtained from ATCC (Middlesex, UK). Cell lines were maintained in culture for up to 3 months and grown in DMEM, supplemented with 10% FBS, 0.01 M Hepes and 1 mM sodium pyruvate. All cells were cultured in a humidified 5% CO2 incubator at 37 °C.
(§3) HMEC-1 cells were seeded in 48-well plates at 20,000 cells/well. After 24 h, 5-fold dilutions of the compounds were added. The cells were allowed to proliferate 4 days in the presence of the compounds, trypsinized, and counted by means of a Coulter counter (Analis, Belgium). HeLa and MDA-MB-231 cells were seeded in 48-well plates at 10,000 cells/well. After 24 h, different concentrations of the compounds were added. After 3 days of incubation, the cells were trypsinized and counted in a Coulter counter. Suspension cells (human lymphoid Cem cells) were seeded in 96-well plates at 60,000 cells/well in the presence of different concentrations of the compounds, allowed to proliferate for 96 h, and counted in a Coulter counter. The 50% inhibitory concentration (IC50) was defined as the compound concentration required to reduce cell proliferation by 50%.

[2] = tested on: MDA-MB-231 cells; experiment: Anti-proliferative activity, MDA-MB-231 breast carcinoma cells (Coulter counting); type: cell-based; conditions: Homo sapiens, MDA-MB-231, 72 h, read-out: Tumor cells IC50 MDA-MB-231
Source text: as §1, §2, §3

[3] = tested on: HMEC-1 cells; experiment: Anti-proliferative activity, HMEC-1 microvascular endothelial cells (Coulter counting); type: cell-based; conditions: Homo sapiens, HMEC-1, 96 h, read-out: Endothelial cells IC50 HMEC-1
Source text: as §1, §2, §3

[4] = tested on: CEM cells; experiment: Anti-proliferative activity, CEM lymphoblastic leukemia cells (Coulter counting); type: cell-based; conditions: Homo sapiens, CCRF-CEM, 96 h, read-out: Tumor cells IC50 CEM
Source text: as §1, §2, §3

[5] = tested on: HMEC-1 cells; experiment: IncuCyte scratch wound migration assay with PI uptake; type: cell-based
Method: Proper tubulin organization is not only required for cell division but also for cell motility and migration. Therefore, we evaluated the capacity of the compounds to inhibit the migration of HMEC-1 endothelial cells. To this end, we used the 96-well IncuCyte® scratch wound assay. After the creation of a cell-free zone (wound) in a confluent cell monolayer, compounds were added, and relative wound density was measured every minute and visualized in time-course plots. PI was added to all wells to visualize toxicity over time, i.e. only dead cells take up this cell-impermeable dye.
Figure 7 Inhibition of HMEC-1 migration. The 96-well IncuCyte® scratch wound assay was used to create a cell-free zone (wound) in a confluent cell monolayer. Next, compounds were added and the relative wound density was measured every minute and visualized in time-course plots (left panels). PI is added to all wells to visualize toxicity over time, i.e. only dead cells take up this cell-impermeable dye (right panels). Average ± SEM (n = 3) are shown.
Wounds were created in confluent HMEC-1 cells by means of the “Incucyte® wound maker”. Next, different concentrations of compound and PI were added and images were taken every 2 min for the duration of the experiment. The algorithm masks each phase-contrast image to identify the position of the wounded (cell-free) and unwounded (cell-occupied) zones. Relative wound density is calculated and visualized in time-course plots.

[6] = tested on: MDA-MB-231 cells; experiment: Caspase-3 activity / apoptosis in live cells (fluorescence microscopy); type: cell-based, human; conditions: 1 µM, after 24 h
Method: (§4) Figure 6 Mechanism of action of the benzofurane derivatives. (A) Inhibition of cell cycle progression. MDA-MB-231 cells were treated with DMSO (control) or compounds 8, 27 or 28 for 24 h. Next, the cells were harvested, stained with propidium iodide (PI), and cell cycle distribution was evaluated by flow cytometry. Percentages of cells in the different phases of the cell cycle are indicated. (B) Caspase-3 activity. MDA-MB-231 cells were seeded in 48-well plates at 40,000 cells/cm². After 24 h, different concentrations of compounds 8, 27 or 28 and 2 µM of the caspase-3 substrate DEVD-NucView488 were added. After 16 h, the cells were incubated with 2 µg/ml Hoechst 33342 to stain the nucleus, and imaged. (C) Disruption of the vascular network. HMEC-1 cells were cultured on matrigel for 3 h to allow the formation of tube-like structures. Next, different concentrations of compounds were added. Upper panel: After 90 min, pictures were taken and the tubular network was scored (3: intact network, 0: network completely destroyed). Bars show average ± SEM (n = 4). Lower panel: Microscopic pictures of the tubular network 3 h after addition of compound.
To confirm the capacity of compounds 27 and 28 to induce apoptosis, MDA-MB-231 cells were treated with the compounds for 24 h in the presence of NucView® 530 Caspase-3. This substrate is cleaved by active caspase-3 activity (the main executioner enzyme during apoptosis) to generate a fluorescent derivative that is analyzed using fluorescence microscopy.
MDA-MB-231 cells were seeded at 40,000 cells/cm². After 24 h, cells were incubated in Fluorobrite DMEM (Gibco), containing the compound and 2 µM of the caspase-3 substrate DEVD-NucView488 (Biotium, Hayward, CA). After 16 h, the DNA was stained with Hoechst33342 and the cells were imaged by fluorescence microscopy.

[7] = tested on: A2780 cells; experiment: Anti-proliferative activity, A2780 ovarian carcinoma cells; type: cell-based, human; conditions: mean ± standard error of three independent experiments
Source text: (§5) One of the most relevant causes of tumor resistance to chemotherapy is the overexpression of membrane pumps which remove the chemotherapeutic agents from the treated cells.

[8] = tested on: MDA-MB-231 cells; experiment: Cell cycle analysis (propidium iodide, flow cytometry); type: cell-based, human; conditions: 0.3 µM, 24 h treatment
Method: Tubulin-binding agents interfere with mitotic spindle formation during cell division. […] Thus, we investigated whether 27 and 28 affect the progression of human breast cancer MDA-MB-231 cells through the cell cycle. […] In contrast, compounds 27 and 28 arrested the cell cycle in the M phase (mitosis) at concentrations as low as 0.03 and 0.1 μM (for compound 27 and 28 respectively).
as §4
MDA-MB-231 cells were seeded in 6-well plates at 125,000 cells/well in DMEM with 10% FBS. After 24 h, the cells were exposed to different concentrations of the compounds. After 24 h, the DNA of the cells was stained with propidium iodide using the CycleTEST PLUS DNA Reagent Kit (BD Biosciences, San Jose, CA). The DNA content of the stained cells was assessed by flow cytometry on a FACSCalibur flow cytometer and analyzed with CellQuest software (BD Biosciences) within 3 h after staining. Cell debris and clumps were excluded from the analysis by appropriate dot plot gating. Percentages of sub-G1, G1, S, and G2/M cells were estimated using appropriate region markers.

[9] = tested on: A2780AD cells; experiment: Anti-proliferative activity, A2780AD (MDR overexpressing P-glycoprotein) ovarian carcinoma cells; type: cell-based, human; conditions: P-glycoprotein overexpressing resistant line, mean ± standard error of three independent experiments, read-out: A2780 AD IC50
Source text: as §5

[10] = tested on: αβ-tubulin; conditions: relative to prototypes 7 and 8; cited from earlier work
[11] = tested on: tumor and endothelial cells; parameters: method as in PMID 24773591; conditions: relative to prototypes 7 and 8; cited from earlier work
[12] = mean ± SD of three independent experiments, 3 days of incubation
[13] = mean ± SD of three independent experiments, 4 days
[14] = mean ± SD of three independent experiments

| IC50 [1, 12] [nM] | IC50 [2, 12] [nM] | melting point [°C] | IC50 [4, 14] [nM] | IC50 ([7]; Homo sapiens, A2780) [nM] | IC50 ([9]; Homo sapiens, A2780AD) [nM] | Compound | IC50 [3, 13] [nM] | further results |
| --- | --- | --- | --- | --- | --- | --- | --- | --- |
| 160 ± 10 | 53 ± 6 | 127 to 129 | 38 ± 1 |  |  | CC(Nc1cccc2cc(C)oc12)=C1C(=O)CC(c2ccccc2)CC1=O (stereo not drawn) [Compound 14, 2-(1-((2-Methylbenzofuran-7-yl)amino)ethylidene)-5-phenylcyclohexane-1,3-dione] | 65 ± 3 |  |
| 890 ± 30 | 170 ± 10 | 178 to 180 | 640 ± 360 | 440 ± 20 | 660 ± 50 | COC(=O)c1cc2cccc(NC(C)=C3C(=O)CC(c4ccccc4)CC3=O)c2o1 (stereo not drawn) [Compound 20, Methyl 7-((1-(2,6-dioxo-4-phenylcyclohexylidene)ethyl)amino)benzofuran-2-carboxylate] | 1600 ± 600 |  |
|  |  |  |  |  |  | COc1ccc(/C=C\c2cc(OC)c(OC)c(OC)c2)cc1OP(=O)(O)O [CA-4P, reference compound] |  | IC50 [1]: 13 ± 1 nM; IC50 [2]: 2.1 ± 0.3 nM; IC50 [3]: 2.9 ± 0.1 nM; IC50 [4]: 11 ± 1 nM |
| 140 ± 40 | 15 ± 2 | 120 to 122 | 40 ± 2 |  |  | CC(Nc1cccc2cc(CO)oc12)=C1C(=O)CC(c2ccccc2)CC1=O (stereo not drawn) [Compound 22, 2-(1-((2-(Hydroxymethyl)benzofuran-7-yl)amino)ethylidene)-5-phenylcyclohexane-1,3-dione] | 150 ± 50 |  |
|  |  |  |  |  |  | CCC(Nc1ccccc1O)=C1C(=O)CC(c2ccccc2)CC1=O (stereo not drawn) [Compound 9] |  | fold less active in tubulin binding [10]: 100 fold; fold less active in antiproliferative assays [11]: 100 fold |
|  |  |  |  |  |  | COc1cc([C@@H]2c3cc4c(cc3[C@H](O)[C@H]3COC(=O)[C@H]23)OCO4)cc(OC)c1OC [Podophillotoxin, reference compound] |  | IC50 [7]: 64 ± 9 nM; IC50 [9]: 74 ± 12 nM |
| 12000 ± 6000 | 1500 ± 600 | 108 to 110 | 5500 ± 1700 |  |  | CNC(=O)c1cc2cccc(NC(C)=C3C(=O)CC(c4ccccc4)CC3=O)c2o1 (stereo not drawn) [Compound 21, 7-((1-(2,6-Dioxo-4-phenylcyclohexylidene)ethyl)amino)-N-methylbenzofuran-2-carboxamide] | 14000 ± 11000 |  |
|  |  |  |  | 1 ± 0.1 | 2100 ± 300 | CC(=O)O[C@H]1C(=O)[C@@]2(C)[C@H]([C@H](OC(=O)c3ccccc3)[C@]3(O)C[C@H](OC(=O)[C@H](O)[C@@H](NC(=O)c4ccccc4)c4ccccc4)C(C)=C1C3(C)C)[C@]1(OC(C)=O)CO[C@@H]1C[C@@H]2O [Paclitaxel, reference compound] |  |  |

| Compound | IC50 [1, 12] [nM] | IC50 [2, 12] [nM] | melting point [°C] | IC50 [4, 14] [nM] | IC50 ([7]; Homo sapiens, A2780) [nM] | IC50 ([9]; Homo sapiens, A2780AD) [nM] | IC50 [3, 13] [nM] | further results |
| --- | --- | --- | --- | --- | --- | --- | --- | --- |
| CCOc1ccccc1NC(C)=C1C(=O)CC(c2ccccc2)CC1=O (stereo not drawn) [Compound 8] |  |  |  |  | 116 ± 8 | 111 ± 16 |  | lowest concentration inhibiting wound closure [5]: 0.5 µM; uptake of PI (toxicity) ([5]; at the lowest concentration inhibiting wound closure (0.5, 0.06 and 0.06 µM)): No increased uptake of PI; apoptotic rate (apoptotic cells, caspase-3 substrate) [6]: 9%; cell cycle arrest [8]: no longer active; IC50 [1]: 180 nM; IC50 [2]: 68 ± 5 nM; IC50 [3]: 100 ± 20 nM; IC50 [4]: 190 ± 10 nM |
